Measurements reported in ChEMBL document CHEMBL4020740, “Antitubulin effects of aminobenzothiophene-substituted triethylated chromones” (Bioorg Med Chem Lett, 2017).
Activity calls are given as the source filed them. The calls are words filed in the database; no cut-off is given here.

What was measured:
Homo sapiens = organism: Homo sapiens; assay: Inhibition of tubulin polymerization in interphase stage of human MDA-MB-231 cells at 0.2 uM after 24 hrs by DAPI staining based confocal microscopic analysis
[1] = Lipophilicity, log P of the compound; format: physicochemical; conditions: octanol/water
A549 = assay: Antiproliferative activity against human A549 cells by sulforhodamine B assay
MCF7 = assay: Antiproliferative activity against human MCF7 cells by sulforhodamine B assay
MDA-MB-231 = assay: Antiproliferative activity against human MDA-MB-231 cells by sulforhodamine B assay
KB = assay: Antiproliferative activity against human KB cells by sulforhodamine B assay
[2] = Antiproliferative activity against human KBVIN cells by sulforhodamine B assay; format: functional, cell-based

SMILES	inhibition (Homo sapiens)	logP [1]	IC50 (A549) [µM]	IC50 (MCF7) [µM]	IC50 (MDA-MB-231) [µM]	IC50 (KB) [µM]	IC50 [2] [µM]
COc1ccc(/C=C\c2cc(OC)c(OC)c(OC)c2)cc1O	Active	–	–	–	–	–	–
CCC1=C(OC)C(CC)(CC)c2oc(-c3csc4cc(NC(=O)OC(C)(C)C)ccc34)cc(=O)c2C1=O	–	–	5.62	6.01	6.52	5.13	5.02
CC(=O)O[C@H]1C(=O)[C@@]2(C)[C@H]([C@H](OC(=O)c3ccccc3)[C@]3(O)C[C@H](OC(=O)[C@H](O)[C@@H](NC(=O)c4ccccc4)c4ccccc4)C(C)=C1C3(C)C)[C@]1(OC(C)=O)CO[C@@H]1C[C@@H]2O [PACLITAXEL]	–	–	–	–	–	–	2.04

The next lines start with results.

inhibition (Homo sapiens)	logP [1]	IC50 (A549) [µM]	IC50 (MCF7) [µM]	IC50 (MDA-MB-231) [µM]	IC50 (KB) [µM]	SMILES	IC50 [2] [µM]
–	2.11	–	–	–	–	CCC1=C(O)c2c(oc(-c3csc4cc(N)ccc34)cc2=O)C(CC)(CC)C1=O	–
–	–	5.1	7.01	7.48	5.88	CCC1=C(OC)C(CC)(CC)C(O)=C(C(=O)/C=C/c2csc3ccc(NC(=O)OC(C)(C)C)cc23)C1=O	5.45
–	–	> 40	> 40	> 40	> 40	CCC1=C(O)c2c(oc(-c3csc4cc(NC(=O)OC(C)(C)C)ccc34)cc2=O)C(CC)(CC)C1=O	> 40
